Reference: patent US20250163043A1 (TRANSTHERA SCIENCES (NANJING), INC., priority 2021, published 2025)

How the values were obtained:
[1] = molecular target: T1, CDK9/CycT1 (Homo sapiens, UniProt P50750); assay: Off-chip mobility shift assay (MSA) on CDK9/CycT1; format: biochemical; design: Full-length human CDK9 [1-372(end) amino acids of; host or cells: baculovirus expression system; conditions: 4-point concentration (0.0016, 0.008, 0.04, 0.2 uM), ATP 10 μM, reaction time 5 hours, read-out: CDK9/CycT1/nM (inhibitory activity)
T1 sequence (P50750 whole entry): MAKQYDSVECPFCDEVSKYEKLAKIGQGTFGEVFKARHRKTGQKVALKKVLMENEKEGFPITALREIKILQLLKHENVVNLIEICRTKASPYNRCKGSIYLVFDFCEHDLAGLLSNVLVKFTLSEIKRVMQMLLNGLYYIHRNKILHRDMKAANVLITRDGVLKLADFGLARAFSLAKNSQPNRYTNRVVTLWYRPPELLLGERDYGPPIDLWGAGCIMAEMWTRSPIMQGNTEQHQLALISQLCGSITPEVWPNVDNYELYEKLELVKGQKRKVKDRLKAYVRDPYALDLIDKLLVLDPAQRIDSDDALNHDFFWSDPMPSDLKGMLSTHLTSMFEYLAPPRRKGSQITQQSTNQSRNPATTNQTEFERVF
T1 sequence (O60563 whole entry partner): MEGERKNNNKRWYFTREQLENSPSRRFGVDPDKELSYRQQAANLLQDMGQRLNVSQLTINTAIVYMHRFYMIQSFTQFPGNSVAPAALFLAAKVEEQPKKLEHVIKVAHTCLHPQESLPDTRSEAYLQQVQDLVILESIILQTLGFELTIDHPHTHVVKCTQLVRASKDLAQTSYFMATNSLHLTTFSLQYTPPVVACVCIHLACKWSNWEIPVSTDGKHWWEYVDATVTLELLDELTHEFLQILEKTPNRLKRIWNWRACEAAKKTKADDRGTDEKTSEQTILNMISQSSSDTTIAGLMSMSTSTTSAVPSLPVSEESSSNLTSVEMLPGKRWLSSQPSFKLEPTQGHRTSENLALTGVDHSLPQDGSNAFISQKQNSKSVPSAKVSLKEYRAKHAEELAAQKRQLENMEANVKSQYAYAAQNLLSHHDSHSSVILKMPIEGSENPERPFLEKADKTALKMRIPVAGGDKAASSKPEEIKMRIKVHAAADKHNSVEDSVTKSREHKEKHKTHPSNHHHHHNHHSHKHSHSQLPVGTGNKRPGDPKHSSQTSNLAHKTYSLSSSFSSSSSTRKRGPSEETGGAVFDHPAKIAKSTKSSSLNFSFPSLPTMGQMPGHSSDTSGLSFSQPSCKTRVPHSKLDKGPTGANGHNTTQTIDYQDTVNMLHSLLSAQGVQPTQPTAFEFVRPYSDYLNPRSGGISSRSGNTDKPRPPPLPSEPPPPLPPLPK
Method: Prepare 100× concentrated Test compound stock solutions with DMSO. Then, Dilute the solution 25 times with Assay Buffer (20 mM HEPES, 0.01% Triton X-100, 2 mM DTT, pH7.5) to prepare 4× test compound solutions.
Test compounds were evaluated at 4-point concentration (0.0016, 0.008, 0.04, 0.2 uM). • 1) Mix 5 μL of 4× test compound solution with 5 μL of 4× substrate/ATP/Metal solution and 10 μL of 2× kinase solution in 384-well polypropylene plate. Incubate for 5 hours at room temperature. • 2) Add 70 μL of Termination Buffer (QuickScout Screening Assist MSA; Carna Biosciences) to stop the reaction. • 3) Separate and detect unphosphorylated/phosphorylated substrate peptides in the reactant using LabChip system (Perkin Elmer). • 4) Evaluate kinase reaction from product ratio (P/(P+S)) calculated by peak height of unphosphorylated substrate(S) and peak height of phosphorylated substrate (P).

[2] = molecular target: T1, CDK9/CycT1; assay: ADP-Glo kinase assay on CDK enzymatic activity, CDK9/CycT1; format: biochemical; conditions: 10 concentrations from 10 μM, 4-fold, 60 min room temperature
In short: (§1)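 Kinase and compound are mixed and held 10 min at room temperature before substrate peptide and ATP start a 60 min reaction. Remaining ATP is depleted with ADP-Glo reagent (40 min), detection reagent is added (40 min), and luminescence gives inhibition rates across ten concentrations from 10 μM, fitted to IC50.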

[3] = molecular target: CDK3/CycE1 (Homo sapiens, UniProt Q00526); assay: ADP-Glo kinase assay on CDK enzymatic activity, CDK3/CycE1; format: biochemical; conditions: 10 concentrations from 10 μM, 4-fold, 60 min room temperature
Sequence of CDK3/CycE1 (Q00526 whole entry, species assumed): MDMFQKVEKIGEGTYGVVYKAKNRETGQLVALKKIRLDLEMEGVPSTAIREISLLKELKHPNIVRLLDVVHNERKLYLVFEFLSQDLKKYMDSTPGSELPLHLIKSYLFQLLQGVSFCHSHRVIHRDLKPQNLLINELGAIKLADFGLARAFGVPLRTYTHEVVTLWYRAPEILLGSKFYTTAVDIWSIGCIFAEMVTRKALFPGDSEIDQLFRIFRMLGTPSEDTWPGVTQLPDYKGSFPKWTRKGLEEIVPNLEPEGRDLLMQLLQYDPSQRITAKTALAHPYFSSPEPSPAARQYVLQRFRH
Sequence of CDK3/CycE1 (P24864 whole entry partner, species assumed): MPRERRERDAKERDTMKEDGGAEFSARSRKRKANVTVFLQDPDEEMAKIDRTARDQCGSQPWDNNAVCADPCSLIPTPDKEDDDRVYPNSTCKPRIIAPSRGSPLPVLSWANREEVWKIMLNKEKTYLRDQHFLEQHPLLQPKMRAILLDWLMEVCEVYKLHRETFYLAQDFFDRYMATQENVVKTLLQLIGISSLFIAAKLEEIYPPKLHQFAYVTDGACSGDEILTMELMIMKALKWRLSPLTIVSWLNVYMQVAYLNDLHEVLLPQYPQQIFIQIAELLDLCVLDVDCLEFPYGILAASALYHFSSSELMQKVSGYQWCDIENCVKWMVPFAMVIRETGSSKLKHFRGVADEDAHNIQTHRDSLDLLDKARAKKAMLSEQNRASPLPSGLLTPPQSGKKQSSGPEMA
In short: as §1

[4] = system: MV-4-11 (human myelomonocytic leukemia cells); assay: CCK-8 cell proliferation assay, MV-4-11; format: cell-based; conditions: MV4-11, 24 h incubation, 11 concentrations from 5000 nM, 3-fold, read-out: MV-4-11 cell proliferation IC50 (class)
Method: Test samples: the compounds of the present invention, having structures shown above.
MV-4-11 (human myelomonocytic leukemia cells) and NCI-H929 (human myeloma cells).
The compounds were dissolved in DMSO and diluted 3-fold in the 96-well plate to obtain stock solutions with 11 concentration gradients. Each cell was inoculated into a 96-well plate, and the diluted compound stock solution was added to the 96-well plate to obtain a series of 11 concentration gradients of compound solutions with final concentrations of 5000 nM starting and 3-fold gradient decreasing, wherein the final DMSO content was […]. There was a medium containing 1‰ DMSO in the negative control well. The treated cells were incubated at 37° C. with 5% CO2 and 95% humidity, wherein MV-4-11 were incubated for 24 h and NCI-H929 for 72 h. After incubation was completed, each well was added with 10 μL of CCK-8 reagent, incubated for 1-3 h at room temperature and placed in the microplate reader, and the absorbance was read at 450 nm.
The inhibition rate was calculated according to the following formula: […]
ODcmpd: compound absorbance; ODpositive: average value of the absorbance of positive control without compound; ODvehicle: average value of the absorbance of solvent vehicle control.
IC50 values were fitted using GraphPad 7.0 based on inhibition rates of compounds at different concentrations.

[5] = molecular target: CDK5/p25NCK (Homo sapiens, UniProt Q00535); assay: ADP-Glo kinase assay on CDK enzymatic activity, CDK5/p25NCK; format: biochemical; conditions: 10 concentrations from 10 μM, 4-fold, 60 min room temperature
Sequence of CDK5/p25NCK (Q00535 whole entry, species assumed): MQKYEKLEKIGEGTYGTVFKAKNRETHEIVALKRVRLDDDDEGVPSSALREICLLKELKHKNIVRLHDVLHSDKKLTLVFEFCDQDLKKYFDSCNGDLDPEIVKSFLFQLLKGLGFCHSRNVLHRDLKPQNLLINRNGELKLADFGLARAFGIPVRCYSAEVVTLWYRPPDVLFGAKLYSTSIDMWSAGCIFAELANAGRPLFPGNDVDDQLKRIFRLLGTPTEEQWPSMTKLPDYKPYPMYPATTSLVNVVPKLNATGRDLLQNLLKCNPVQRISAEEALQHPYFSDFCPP
Sequence of CDK5/p25NCK (Q15078 99-307 partner limits assumed, species assumed): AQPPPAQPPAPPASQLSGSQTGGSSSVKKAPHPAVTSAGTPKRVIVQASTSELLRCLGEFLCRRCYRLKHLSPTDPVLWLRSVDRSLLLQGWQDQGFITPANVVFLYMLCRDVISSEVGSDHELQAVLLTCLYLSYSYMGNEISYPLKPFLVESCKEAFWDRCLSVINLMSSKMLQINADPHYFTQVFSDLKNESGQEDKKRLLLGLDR
In short: as §1

[6] = molecular target: CDK2/CycA2 (Homo sapiens, UniProt P24941); assay: ADP-Glo kinase assay on CDK enzymatic activity, CDK2/CycA2; format: biochemical; conditions: 10 concentrations from 10 μM, 4-fold, 60 min room temperature
In short: as §1

[7] = molecular target: CDK1/CycE1 (Homo sapiens, UniProt P06493); assay: ADP-Glo kinase assay on CDK enzymatic activity, CDK1/CycE1; format: biochemical; conditions: ADP-Glo; 10 concentrations from 10 μM, 4-fold; 60 min room temperature; read-out: CDK1/CycE1/nM (IC50)
Sequence of CDK1/CycE1 (P06493 whole entry, species assumed): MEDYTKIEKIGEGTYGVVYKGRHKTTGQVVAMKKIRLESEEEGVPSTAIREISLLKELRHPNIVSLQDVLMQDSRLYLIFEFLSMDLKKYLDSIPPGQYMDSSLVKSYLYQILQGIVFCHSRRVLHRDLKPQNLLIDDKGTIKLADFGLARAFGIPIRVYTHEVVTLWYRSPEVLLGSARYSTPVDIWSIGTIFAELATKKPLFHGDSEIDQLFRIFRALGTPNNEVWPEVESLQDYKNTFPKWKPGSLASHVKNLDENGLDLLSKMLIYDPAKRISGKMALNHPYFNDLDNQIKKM
Sequence of CDK1/CycE1 (P24864 whole entry partner, species assumed): as the sequence (P24864 whole entry partner, species assumed) above
In short: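 Compounds in 10-point 4-fold dilutions from 10 μM final, preincubated 10 min with kinase, then substrate/ATP added; 60 min reaction at room temperature. ADP-Glo luminescence read.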

`CC(C)Nc1nc([C@@H](C)O)cc2cnc(NC3CC[C@H](C(=O)O)C3)nc12` (stereo in doubt) [Compound 77, (1S,3R)-3-((6-((R)-1-hydroxyethyl)-8-(isopropylamino)pyrido[3,4-d]pyrimidin-2-yl)amino)cyclopentane-1-carboxylic acid] was tested, and the IC50 [1] was 85 nM.

`CC(=O)N[C@@H]1CCC[C@H](C(=O)Nc2cc3c(NC(C)C)nc(C(F)F)cc3cn2)C1` [Compound 1, (1S,3R)-3-acetamido-N-(7-(difluoromethyl)-5-(isopropylamino)-2,6-naphthyridin-3-yl)cyclohexane-1-carboxamide] gave an IC50 [1] of 7 nM.

`CC(C)Nc1nc(C#N)cc2cnc(N[C@H]3CC[C@@H](O)C3)cc12` [Compound 36, 7-(((1S,3R)-3-hydroxycyclopentyl)amino)-1-(isopropylamino)-2,6-naphthyridine-3-carbonitrile] was tested, and the IC50 [2] was 1 nM, the IC50 [3] was 23 nM and the IC50 [4] was 400 to 1000 nM. The IC50 [5] was 7 nM and the IC50 [6] was 4 nM.

Molecule `CC(C)Nc1nc(C#N)cc2cnc(N[C@@H]3CN[C@H](CO)C3)cc12` [Compound 37, 7-(((3S,5S)-5-(hydroxymethyl)pyrrolidin-3-yl)amino)-1-(isopropylamino)-2,6-naphthyridine-3-carbonitrile] has an IC50 [2] of 5 nM, an IC50 [3] of 1130 nM and an IC50 [4] of over 1000 nM. It also gave an IC50 [5] of 941 nM and an IC50 [6] of 520 nM.

In the case of `CC(C)Nc1nc(C#N)cc2cnc(N[C@@H]3CNCC[C@@H]3F)cc12` [Compound 42, 7-(((3R,4S)-4-fluoropiperidin-3-yl)amino)-1-(isopropylamino)-2,6-naphthyridine-3-carbonitrile], the IC50 [2] is reported as 18 nM, the IC50 [3] is reported as 1300 nM and the IC50 [4] is reported as over 1000 nM. The IC50 [5] was 3040 nM and the IC50 [6] was 2020 nM.

Molecule `CC(=O)N[C@H]1CC[C@H](Nc2ncc3cc(C#N)nc(NC(C)C)c3n2)C1` [Compound 46, N-((1S,3S)-3-((6-cyano-8-(isopropylamino)pyrido[3,4-d]pyrimidin-2-yl)amino)cyclopentyl)acetamide] has an IC50 [2] of 3 nM, an IC50 [3] of 271 nM and an IC50 [4] of 400 to 1000 nM. For the same molecule, the IC50 [5] was 72 nM and the IC50 [6] was 33 nM.

Molecule `CC(=O)N[C@@H]1CC[C@H](Nc2cc3c(NC(C)C)nc(C#N)cc3cn2)C1` [Compound 47, N-((1R,3S)-3-((7-cyano-5-(isopropylamino)-2,6-naphthyridin-3-yl)amino)cyclopentyl)acetamide] has an IC50 [2] of 17 nM, an IC50 [3] of 987 nM and an IC50 [4] of 400 to 1000 nM. The IC50 [5] was 1050 nM and the IC50 [6] was 494 nM.

`CC(C)Nc1nc(C(F)F)cc2cnc(N[C@H]3CC[C@@H](N)C3)cc12` [Compound 53, N7-((1S,3R)-3-aminocyclopentyl)-3-(difluoromethyl)-N^1-isopropyl-2,6-naphthyridine-1,7-diamine] showed an IC50 [2] of 2 nM, an IC50 [3] of 315 nM and an IC50 [4] of 400 to 1000 nM. It also gave an IC50 [5] of 549 nM, an IC50 [6] of 161 nM and an IC50 [7] of 709 nM.

`COCCN[C@H]1CC[C@H](Nc2cc3c(NC(C)C)nc(C#N)cc3cn2)C1` [Compound 56, 1-(isopropylamino)-7-(((1S,3S)-3-((2-methoxyethyl)amino)cyclopentyl)amino)-2,6-naphthyridine-3-carbonitrile] showed an IC50 [2] of 3 nM, an IC50 [3] of 1110 nM and an IC50 [4] of 400 to 1000 nM. For the same molecule, the IC50 [5] was 927 nM and the IC50 [6] was 656 nM.

With `CC(C)Nc1nc(C#N)cc2cnc(N[C@H]3CCCN(C)C3)cc12` [Compound 57, (S)-1-(isopropylamino)-7-((1-methylpiperidin-3-yl)amino)-2,6-naphthyridine-3-carbonitrile] the IC50 [2] was 30 nM, the IC50 [3] was 2520 nM and the IC50 [4] was over 1000 nM. For the same molecule, the IC50 [5] was 1760 nM and the IC50 [6] was 427 nM.

`CC(C)Nc1nc([C@@H](C)O)cc2cnc(N[C@H]3CC[C@H](NC(=O)CN(C)C)CC3)nc12` [Compound 63, 2-(dimethylamino)-N-((1R,4r)-4-((6-((R)-1-hydroxyethyl)-8-(isopropylamino)pyrido[3,4-d]pyrimidin-2-yl)amino)cyclohexyl)acetamide] was tested, and the IC50 [1] was 14 nM.

For `C[C@@H](O)c1cc2cnc(N[C@H]3CC[C@H](NC(=O)CN(C)C)CC3)nc2c(NCC(C)(C)C)n1` [Compound 64, 2-(dimethylamino)-N-((1R,4r)-4-((6-((R)-1-hydroxyethyl)-8-(neopentylamino)pyrido[3,4-d]pyrimidin-2-yl)amino)cyclohexyl)acetamide], the IC50 [1] was 26 nM.

For `CC(=O)N[C@H]1CC[C@H](Nc2ncc3cc([C@@H](C)O)nc(NC(C)C)c3n2)CC1` [Compound 65, N-((1R,4r)-4-((6-((R)-1-hydroxyethyl)-8-(isopropylamino)pyrido[3,4-d]pyrimidin-2-yl)amino)cyclohexyl)acetamide], the IC50 [1] was 21 nM.

`CC(C)Nc1nc(C#N)cc2cnc(N[C@H]3CC[C@H](NC(=O)CN(C)C)CC3)nc12` [Compound 66, N-((1r,4r)-4-((6-cyano-8-(isopropylamino)pyrido[3,4-d]pyrimidin-2-yl)amino)cyclohexyl)-2-(dimethylamino)acetamide] gave an IC50 [1] of 5 nM.

`CC(C)Nc1nc([C@@H](C)O)cc2cnc(N[C@H]3CC[C@H](N4CCN(C)CC4)CC3)nc12` [Compound 67, (R)-1-(8-(isopropylamino)-2-(((1r,4R)-4-(4-methylpiperazin-1-yl)cyclohexyl)amino)pyrido[3,4-d]pyrimidin-6-yl)ethan-1-ol] gave an IC50 [1] of 10 nM.

In the case of `CC(C)Nc1nc([C@@H](C)O)cc2cnc(NCC3CCN(S(C)(=O)=O)CC3)nc12` [Compound 68, (R)-1-(8-(isopropylamino)-2-(((1-(methylsulfonyl)piperidin-4-yl)methyl)amino)pyrido[3,4-d]pyrimidin-6-yl)ethan-1-ol], the IC50 [1] is reported as 82 nM.

`CC(=O)N1CCC(CNc2ncc3cc([C@@H](C)O)nc(NC(C)C)c3n2)CC1` [Compound 69, (R)-1-(4-(((6-(1-hydroxyethyl)-8-(isopropylamino)pyrido[3,4-d]pyrimidin-2-yl)amino)methyl)piperidin-1-yl)ethan-1-one] showed an IC50 [1] of 81 nM.

Work on `CC(C)Nc1nc([C@@H](C)O)cc2cnc(NCC3CCCN(S(C)(=O)=O)C3)nc12` (stereo partly drawn) [Compound 70, (1R)-1-(8-(isopropylamino)-2-(((1-(methylsulfonyl)piperidin-3-yl)methyl)amino)pyrido[3,4-d]pyrimidin-6-yl)ethan-1-ol] yielded an IC50 [1] of 61 nM.

Work on `CC(C)Nc1nc(C#N)cc2cnc(N[C@H]3CC[C@H](C)NC3)nc12` [Compound 107, 8-(isopropylamino)-2-(((3S,6S)-6-methylpiperidin-3-yl)amino)pyrido[3,4-d]pyrimidine-6-carbonitrile] yielded an IC50 [2] of 18 nM, an IC50 [3] of 831 nM and an IC50 [4] of 400 to 1000 nM. For the same molecule, the IC50 [5] was 435 nM, the IC50 [6] was 443 nM and the IC50 [7] was 947 nM.

In the case of `CC(C)Nc1nc(C#N)cc2cnc(NC3CCNCC3)nc12` [Compound 114, 8-(isopropylamino)-2-(piperidin-4-ylamino)pyrido[3,4-d]pyrimidine-6-carbonitrile], the IC50 [2] is reported as 9 nM, the IC50 [3] is reported as 413 nM and the IC50 [4] is reported as 400 to 1000 nM. It also gave an IC50 [5] of 1170 nM, an IC50 [6] of 504 nM and an IC50 [7] of 216 nM.

Molecule `C[C@@H](Nc1nc(C#N)cc2cnc(N[C@H]3CCCNC3)cc12)c1ccccc1` [Compound 147, 1-(((R)-1-phenylethyl)amino)-7-(((S)-piperidin-3-yl)amino)-2,6-naphthyridine-3-carbonitrile] has an IC50 [2] of 3 nM, an IC50 [3] of 215 nM and an IC50 [4] of 400 to 1000 nM. The IC50 [5] was 2230 nM, the IC50 [6] was 531 nM and the IC50 [7] was 158 nM.
